Experimental findings from patent US20240264169A1, “METHOD FOR THE QUANTIFICATION OF THE ACTIVATION STATE OF G-PROTEIN-COUPLED RECEPTORS IN A HUMAN BIOLOGICAL SAMPLE” (ALDA S.R.L., priority 2021, published 2024) are described below.

“And” between values parts separate entries of the source, which are not always exact repeats. Equal entries are not always repeated.

Common to all, as to type: cell-based
The test system of test [1] is human neutrophils. The test can be described thus: Neutrophil morphology upon fixation (spherical vs polarized). On the procedure: (§1) Precisely this last aspect, however, offers added value in monitoring the interaction of the receptor with β-Arrestin. Indeed, in this scenario, the maximum interaction value between these two proteins is recorded 8 to 12 minutes after the interleukin stimulus. The measurement of the activation state occurs within a defined time window, the beginning of which coincides with the time of sampling (FIG. 1a). By subjecting the blood aliquots to a stasis under controlled conditions, it is possible to obtain a homogeneous activation state among the neutrophils in the control sample, estimated by quantifying the amount of receptor that is bound to β-Arrestin at the time of fixation. […] The amount of activation is obtained by difference with the basal state, which corresponds to the amount of desensitized receptor found after the same time interval in each experiment. The correlation between FRET signal intensity and morphology (FIG. 4c) allows us to assess the effectiveness of the inhibitor: the change in morphology from spherical to polarized in the presence of high FRET, indicates the persistence of a G-protein pathway-mediated signal. In contrast, the presence of high FRET in perfectly spherical cells (indistinguishable from those observed in the control aliquot), is an indication of high desensitization of the receptor by β-Arrestins, and thus the inhibitor is able to promote deactivation of the receptor, with the effect of a drastic reduction in G-protein-mediated signaling.
Thus, the treatment with allosteric inhibitors generates high receptor desensitization. However, if IL-8 treatment is conducted in the presence of allosteric inhibitor, neutrophil morphology is maintained spherical even under stimulated conditions. […] In the quiescent or competitive inhibition condition, the neutrophil consistently retains a spherical morphology.
The most striking difference between the condition in which the sample is treated with IL-8 and the condition in which the sample is pretreated with inhibitor and then subjected to the IL-8 stimulus concerns morphology. […]

The test system of test [2] is human neutrophils. Nature of the test: Cell count after treatment of blood sample. The text has this:
Another aspect that strongly distinguishes the sample activated with IL8 alone and the IL8_+_navarixin sample is the cell count after treatment.

The target of test [3] is T1, CXCR1//ArrB interaction (Homo sapiens, UniProt P25024).
T1 construct: expression and localization of endogenous CXCR1 protein; endogenous in cells; host or cells: human neutrophils in venous blood aliquots
T1 sequence (P25024 1-350): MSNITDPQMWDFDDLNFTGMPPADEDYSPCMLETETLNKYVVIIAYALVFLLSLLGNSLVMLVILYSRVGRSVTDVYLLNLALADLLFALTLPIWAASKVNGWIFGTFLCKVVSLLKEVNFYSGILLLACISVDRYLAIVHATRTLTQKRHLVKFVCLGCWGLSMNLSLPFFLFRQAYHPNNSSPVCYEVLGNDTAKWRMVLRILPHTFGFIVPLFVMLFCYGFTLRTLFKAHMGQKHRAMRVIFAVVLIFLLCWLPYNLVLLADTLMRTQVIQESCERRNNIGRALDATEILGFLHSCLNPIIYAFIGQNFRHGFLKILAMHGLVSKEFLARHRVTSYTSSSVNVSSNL
Nature of the test: FRET assay (intensity-based acceptor photobleaching) of CXCR1//β-Arrestin interaction on neutrophils.
Text: Next, the measured FRET efficiency is related to the abundance of the interaction between the donor and acceptor probe within each pixel of the image. Detection of the FRET signal consists of a precise estimate of the fluorescent emission (FD) intensity or emission decay rate (<τ>) of the donor probe. The quantization of FD in a biological sample appears to be inexpensive in terms of complexity and cost of the instrumentation required for analysis. […] Below is the formula used to calculate the FRET (pixel by pixel) efficiency shown in the images reported in this study:
as §1, with “signal.” for “signal. In contrast, the presence of high FRET in perfectly spherical cells (indistinguishable from those observed in the control aliquot), is an indication of high desensitization of the receptor by β-Arrestins, and thus the inhibitor is able to promote deactivation of the receptor, with the effect of a drastic reduction in G-protein-mediated signaling.”
Next, the FRET assay for measuring the CXCR1//ArrB interaction on neutrophils was repeated, operating in triplicate (FIG. 4). A first control sample, CTRL-DMSO, corresponds to the sample set at 30 minutes; this time is required for neutrophils to return to a resting state after mechanical activation due to handling. […] Values reported refer to the measurements on 15 neutrophil cells of donor fluorophore de-quenching following acceptor photo-bleaching, obtained by the INTENSITY-BASED ACCEPTOR PHOTOBLEACHING approach (FIG. 7 and Table 1).
The CTRL of each triplicate consists of a sister sample subjected to the same treatment conditions unless drug addition. Exclusively for the time zero sample, fixation was carried out at about one minute after sampling, and the analysis reported high FRET probably due to heterologous desensitization. For all remaining samples, fixation was performed at 30 minutes after sampling, an interval of time during which the drug was allowed to act, directly added to the tube of each treated sample.

The target of test [4] is T2, CXCR1-βArrestin2 interaction (Homo sapiens, UniProt P25024).
T2 construct: expression and localization of endogenous CXCR1 protein; endogenous in cells; host or cells: human neutrophils in venous blood aliquots
T2 sequence (P25024 1-350): T1 sequence (P25024 1-350)
The test can be described thus: FRET-FLIM donor probe lifetime measurement, anti-CXCR1 donor / anti-βArrestin2 acceptor, neutrophils. To be noted: Reparixin 100 μg/ml; one value per cell (3 cells); Levenberg-Marquardt fitting; Control 2.57-2.63, Donor only 2.64-2.67.
Text: The fitting model used is bi-exponential and the measurement is repeated for each individual neutrophil: a global decay curve consisting of the summation of the curves recorded in all the pixels that make up the analyzed cell is generated for each of them. The rate of decay of the fluorescence intensity of the total donor population (bound and unbound receptor) is of the exponential type and follows the trend described by the formula:
The decay acquired in each region of interest (ROI) corresponds to the lifetime obtained from the cumulative histogram consisting of the summation of all pixels contained in the ROL The histogram is interpolated by bi-exponential fitting, and the lifetime calculated on the two components (A1 and A2) with the following equation:
The expression used to calculate the FRET efficiency by using the FLIM technique is as follows:
where tD is the absolute donor lifetime, measured in a sample containing only the donor probe, and tD-A is the donor lifetime in a sample subjected to the same condition, in which both donor and acceptor probes are present.
To correctly interpret the following graph (FIG. 8b), remember that the presence of interaction induces a lowering of the donor probe lifetime; this lowering is quantified by the slope of the decay curve, which corresponds to the donor probe lifetime (τ). The value of τ can be derived numerically from the nonlinear fitting of the decay curve.
The Levenberg-Marquardt algorithm, which is based on the method of least squares, was used for nonlinear fitting of the recorded decay curves.
The values of r extrapolated from the nonlinear fitting by using the Levenberg-Marquardt algorithm were further verified using the maximum likelihood estimation (MLE) method, which allows for greater accuracy in evaluating the parameters obtained from the statistical distribution of photonic phenomena (such as the decay of a fluorophore's emission), as these phenomena are generally governed by a Poissonian distribution. The values shown in the table are those calculated exclusively by the Levenberg-Marquardt algorithm.

Test [5] addresses T3, CXCR1-GaI interaction (Homo sapiens, UniProt P25024).
T3 construct: expression and localization of endogenous CXCR1 protein; endogenous in cells; host or cells: human neutrophils
T3 sequence (P25024 1-350): T1 sequence (P25024 1-350)
Nature of the test: FRET-FLIM analysis of the CXCR1-GaI interaction pair. To be noted: in the presence of IL-8 (10 nM). On the procedure: The receptor activation status was measured through the quantification of CXCR1-GaI and CXCR1-Arrestin interactions. […] In this circumstance, the minimum value of FRET is assumed, which serves as an internal control.

Setting [6] is: IL-8 treatment in the presence of allosteric inhibitor.
Setting [7] is: REPARIXIN 100 ugmL-1, 30 min, 15 neutrophil cells, each column one of triplicate samples.

As to `CC[C@@H](Nc1c(Nc2cccc(C(=O)N(C)C)c2O)c(=O)c1=O)c1ccc(C)o1` [Navarixin], the neutrophil morphology result in test [1] (setting [6]) is reported as “spherical”. In addition, the “number of cells compared to control” value in test [2] (sample pretreated with inhibitor, then stimulated with IL-8) is on record as “same number of cells”.
`CC(C)Cc1ccc([C@@H](C)C(=O)NS(C)(=O)=O)cc1` [Reparixin]: in test [3] (setting [7]), the “FRET (donor de-quenching after acceptor photobleaching), Mean” value was 32.35 and 27.67 and 32.60; the “FRET (donor de-quenching after acceptor photobleaching), Median” value is 38.96 and 21.92 and 35.03. Moreover, the “FRET in analyzed cells” value in test [3] (Reparixin 40 ug/ml, two of the three samples) is on record as “many cells with FRET values equal to the control”. Moreover, the “FRET versus control (interaction with β-Arrestins)” value in test [3] (combined treatment IL-8 + allosteric inhibitor) was “higher than control”. Besides, in test [3] (highest concentration of Reparixin (100 μg/mL), 30 min), the “FRET in analyzed cells” value was “high in many cells”. In test [4], the “τ (donor probe lifetime)” value is 2.05 and 2.12 and 2.1. Further, the neutrophil morphology entry in test [1] (setting [6]) is recorded as “spherical”.
For the molecule interleukin-8 [IL-8], the “amount of receptor in the desensitized state (in complex with b-Arrestin2)” value in test [3] (IL-8 stimulation, in presence and absence of allosteric modulator) is reported as “significant increase”. In addition, the “time of maximum receptor-β-Arrestin interaction after stimulus” value in test [3] (after the interleukin stimulus) lay within 8 to 12 min. The “signal lifetime versus non-activated control” value in test [5] is given as “decrease in signal lifetime”. The neutrophil morphology result in test [1] (IL-8 treatment, inhibitor absent) is listed as “polarized”. The “cells found at the time of fixation relative to control” value in test [2] (sample stimulated with IL-8 alone) is on record as “about 20%”.
